Data on 1 molecule can be found in patent publication US20190023743A1, “METHODS AND COMPOSITIONS FOR MODULATING DRUG-POLYMER ARCHITECTURE, PHARMACOKINETICS AND BIODISTRIBUTION” (priority 2007, published 2019).

Series [1] relates to C26 colon carcinoma tumor. Nature of the series: Survival of tumor-bearing mice, C26 colon carcinoma. It is filed as in vivo, Balb/C mice. The settings on record: free doxorubicin 12.5, micelle 25 mg drug/kg body weight, sacrificed after >15% body weight loss, Kaplan Meier analysis. Here is the method:
Eight days after subcutaneous implantation of C26 colon carcinoma tumor cells, Balb/C mice were randomized and treated. The mice were systemically administered either a PBS control or does of approximately equal toxicity of free doxorubicin at 12.5 mg drug/kg body weight or 25 mg drug/kg body weight micelle doxorubicin-ELP. Mice were sacrificed after losing >15% of their body weight due to tumor burden. The treatment groups were blinded during measurement.
The data shown in FIG. 13 were determined as follows: Eight days after subcutaneous implantation of C26 colon carcinoma tumor cells, Balb/C mice were randomized and treated. […] The mice were sacrificed after losing >15% of their body weight due to tumor burden. The treatment groups were blinded during measurement.

For series [2] the following is noted: 4 days post administration; free doxorubicin 12.5, micelle 25, unimer 6.3 mg drug/kg body weight; Balb/C mice bearing C26 tumors.
Procedure: Animals dosed near the maximum tolerated amount of doxorubicin lose body weight, and weight loss 4 days post doxorubicin administration is used in this experiment as a gross indicator of toxicity. Balb/C mice bearing C26 colon carcinoma tumors were systemically administered PBS, free doxorubicin, micelle doxorubicin-ELP, or unimer doxorubicin-ELP at 0, 12.5, 25, and 6.3 mg drug/kg body weight respectively. […] Error bars indicate the standard deviation (n=5).
The toxicity of doxorubicin-ELP was estimated by body weight loss. Animals that were dosed near the maximum tolerated amount of free doxorubicin, micelle doxorubicin-ELP or unimer doxorubicin-ELP lost body weight, and the weight observed 4 days after the injection of the doxorubicin composition was taken as a gross indicator of toxicity. Balb/C mice bearing C26 colon carcinoma tumors were systemically administered either PBS as a control or free doxorubicin, micelle doxorubicin-ELP, or unimer doxorubicin-ELP at 12.5, 25, and 6.3 mg drug/kg body weight, respectively. […] Error bars indicate the standard deviation (n=5).

As to `COc1cccc2c1C(=O)c1c(O)c3c(c(O)c1C2=O)C[C@@](O)(C(=O)CO)C[C@@H]3O[C@H]1C[C@H](N)[C@H](O)[C@H](C)O1` [free doxorubicin, doxorubicin], the survival time result was “did not significantly effect survival time” in series [1] and “did not have any significant effect on survival” in series [1] (listed as Free doxorubicin). The “toxicity estimated by body weight loss” value in series [2] is reported as “approximately equally toxic”.
